Data published in patent publication US20130071854A1, “METHODS FOR THE IDENTIFICATION AND CHARACTERIZATION OF HDAC INTERACTING COMPOUNDS” (priority 2009, published 2013).
Read-outs that look alike come from different tables or passages of the source.

Legend:
ALDH2 = target: T1, ALDH2 (Homo sapiens, UniProt P05091); experiment: Competition binding assay in cell lysate, affinity matrix, MS; settings: ALDH2, read-out: IC50
T1 construct: endogenous in cells
T1 sequence (P05091 18-517): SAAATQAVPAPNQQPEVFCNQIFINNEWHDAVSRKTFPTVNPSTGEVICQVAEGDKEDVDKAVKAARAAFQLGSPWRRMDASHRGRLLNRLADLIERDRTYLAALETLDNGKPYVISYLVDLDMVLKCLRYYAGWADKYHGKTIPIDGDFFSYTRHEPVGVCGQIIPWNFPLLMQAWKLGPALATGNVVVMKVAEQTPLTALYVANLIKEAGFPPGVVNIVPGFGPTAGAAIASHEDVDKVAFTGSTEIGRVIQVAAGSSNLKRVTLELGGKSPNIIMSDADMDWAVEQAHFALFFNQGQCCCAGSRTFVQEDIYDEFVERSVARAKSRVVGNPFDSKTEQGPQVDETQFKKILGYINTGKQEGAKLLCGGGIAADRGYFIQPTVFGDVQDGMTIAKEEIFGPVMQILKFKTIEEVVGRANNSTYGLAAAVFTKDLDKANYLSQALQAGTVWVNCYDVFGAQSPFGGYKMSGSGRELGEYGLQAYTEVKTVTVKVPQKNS

BZW2 = target: T2, BZW2 (Homo sapiens, UniProt Q9Y6E2); experiment: as above; settings: BZW2, read-out: IC50
T2 construct: endogenous in cells
T2 sequence (Q9Y6E2 1-419): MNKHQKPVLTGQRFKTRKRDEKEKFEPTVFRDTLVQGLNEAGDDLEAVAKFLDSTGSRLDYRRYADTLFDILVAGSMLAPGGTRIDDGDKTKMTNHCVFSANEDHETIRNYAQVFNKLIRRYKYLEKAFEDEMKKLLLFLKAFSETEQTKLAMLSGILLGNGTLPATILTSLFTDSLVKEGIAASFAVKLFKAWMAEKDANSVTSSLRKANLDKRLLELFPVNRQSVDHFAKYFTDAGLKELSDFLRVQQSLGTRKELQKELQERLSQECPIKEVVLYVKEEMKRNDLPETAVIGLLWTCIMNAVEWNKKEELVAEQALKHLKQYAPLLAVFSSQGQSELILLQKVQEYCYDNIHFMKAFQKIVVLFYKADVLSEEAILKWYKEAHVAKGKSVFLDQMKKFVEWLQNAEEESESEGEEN

HSPD1 = target: T3, HSPD1 (Homo sapiens, UniProt P10809); experiment: as above; settings: HSPD1, read-out: IC50
T3 construct: endogenous in cells
T3 sequence (P10809 27-573): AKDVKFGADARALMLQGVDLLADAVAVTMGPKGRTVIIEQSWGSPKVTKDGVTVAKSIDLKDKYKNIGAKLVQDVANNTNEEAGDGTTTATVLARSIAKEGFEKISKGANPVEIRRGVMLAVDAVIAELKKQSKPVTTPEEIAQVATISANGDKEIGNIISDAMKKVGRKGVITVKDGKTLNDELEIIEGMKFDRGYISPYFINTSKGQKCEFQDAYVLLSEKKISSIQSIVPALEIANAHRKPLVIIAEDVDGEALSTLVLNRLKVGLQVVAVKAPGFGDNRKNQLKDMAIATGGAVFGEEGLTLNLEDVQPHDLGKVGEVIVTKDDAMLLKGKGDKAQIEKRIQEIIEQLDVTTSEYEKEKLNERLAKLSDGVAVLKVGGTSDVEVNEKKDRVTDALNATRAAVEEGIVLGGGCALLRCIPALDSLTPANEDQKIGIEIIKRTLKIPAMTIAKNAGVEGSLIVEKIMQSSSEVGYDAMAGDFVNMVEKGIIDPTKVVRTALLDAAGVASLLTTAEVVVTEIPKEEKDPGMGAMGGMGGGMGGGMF

ISOC1 = target: T4, ISOC1 (Homo sapiens, UniProt Q96CN7); experiment: as above; settings: ISOC1, read-out: IC50
T4 construct: endogenous in cells
T4 sequence (Q96CN7 1-298): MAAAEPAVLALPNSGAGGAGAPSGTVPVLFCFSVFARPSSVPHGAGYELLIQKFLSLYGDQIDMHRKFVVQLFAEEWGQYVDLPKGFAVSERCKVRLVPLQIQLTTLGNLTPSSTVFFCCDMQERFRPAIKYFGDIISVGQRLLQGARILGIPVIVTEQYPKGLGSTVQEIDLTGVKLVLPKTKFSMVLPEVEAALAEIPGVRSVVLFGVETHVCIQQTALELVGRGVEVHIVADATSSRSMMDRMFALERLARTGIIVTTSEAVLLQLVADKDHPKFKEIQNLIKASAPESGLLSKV

ISOC2 = target: T5, ISOC2 (Homo sapiens, UniProt Q96AB3); experiment: as above; settings: ISOC2; K-562 cell lysate
T5 construct: endogenous in cells
T5 sequence (Q96AB3 whole entry): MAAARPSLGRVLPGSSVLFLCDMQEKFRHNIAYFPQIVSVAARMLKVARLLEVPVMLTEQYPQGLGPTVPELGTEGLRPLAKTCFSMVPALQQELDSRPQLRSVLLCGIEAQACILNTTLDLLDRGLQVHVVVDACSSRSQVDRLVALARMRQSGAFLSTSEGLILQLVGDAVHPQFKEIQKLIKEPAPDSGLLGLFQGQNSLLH

PPP4C = target: T6, PPP4C (Homo sapiens, UniProt P60510); experiment: as above; settings: PPP4C, read-out: IC50
T6 construct: endogenous in cells
T6 sequence (P60510 1-307): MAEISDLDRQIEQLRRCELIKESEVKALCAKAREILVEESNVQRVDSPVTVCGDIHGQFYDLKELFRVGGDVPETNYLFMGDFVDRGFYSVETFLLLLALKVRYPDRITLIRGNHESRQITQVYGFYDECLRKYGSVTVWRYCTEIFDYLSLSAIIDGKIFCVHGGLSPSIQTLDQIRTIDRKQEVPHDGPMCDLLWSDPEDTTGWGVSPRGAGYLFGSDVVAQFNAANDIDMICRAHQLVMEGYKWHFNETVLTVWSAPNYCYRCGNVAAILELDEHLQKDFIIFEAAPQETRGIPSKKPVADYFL

MTA1 = experiment: Competition binding assay in cell lysate, affinity matrix, MS (Mi-2/NuRD interactor); parameters: species or system human; settings: Molt-4 cell lysate
WDR5 = target: T7, WDR5 (Homo sapiens, UniProt P61964); experiment: Competition binding assay in cell lysate, affinity matrix, MS; settings: WDR5; K-562 cell lysate
T7 construct: endogenous in cells

CoREST complex = experiment: Chemoproteomic binding profiling, K562 cell extract, SAHA/ITF2357 probe matrix (Kd app); parameters: species or system human; settings: read-out: Kd^app GSE1
NuRD complex = experiment: as above; parameters: species or system human
Sin3 complex = experiment: as above; parameters: species or system human
[1] = tested on: histone acetylation, K562 cells; experiment: Mapping of histone acetylation by LC-MS/MS of K562 cells treated with HDACi; type: cell-based, human; settings: K562 cells treated 6 hours, isobaric tagging and MS/MS
TBL1X = settings: K-562 cell lysate
GPS2 = settings: Molt-4 cell lysate
DNTTIP1 = experiment: Competition binding assay in cell lysate, affinity matrix, MS; settings: K-562 cell lysate
GATAD2A = experiment: Competition binding assay in cell lysate, affinity matrix, MS (Mi-2/NuRD interactor)
GATAD2B = experiment: as above
MBD3 = experiment: as above
MTA2 = experiment: as above
MTA3 = experiment: as above; settings: K-562 cell lysate
RBBP7 = experiment: Competition binding assay in cell lysate, affinity matrix, MS (Sin3/Mi2-NuRD interactor)

## CC(/C=C/C(=O)NO)=C\[C@@H](C)C(=O)c1ccc(N(C)C)cc1 [Trichostatin A]
ALDH2; K-562 cell lysate
  IC50: 3000 nM
ALDH2; Molt-4 cell lysate
  IC50: 3000 nM
BZW2; K-562 cell lysate
  IC50: 2790 nM
BZW2; Molt-4 cell lysate
  IC50: 2450 nM
HSPD1; K-562 cell lysate
  IC50: 3000 nM
HSPD1; Molt-4 cell lysate
  IC50: 3000 nM
ISOC1; K-562 cell lysate
  IC50: 3000 nM
ISOC1; Molt-4 cell lysate
  IC50: 3000 nM
ISOC2
  IC50: 3000 nM
PPP4C; K-562 cell lysate
  IC50: 3000 nM
PPP4C; Molt-4 cell lysate
  IC50: 3000 nM
MTA1
  IC50: 60 nM
WDR5
  IC50: 420 nM
CoREST complex
  Kd: 4 nM
NuRD complex; read-out: Kd^app CHD4
  Kd: 60 nM
NuRD complex; read-out: Kd^app GATAD2B
  Kd: 30 nM
NuRD complex; read-out: Kd^app MTA1
  Kd: 120 nM
Sin3 complex; protein SAP30, read-out: Kd^app SAP30
  Kd: 30 nM
Sin3 complex; protein SIN3A, read-out: Kd^app SIN3A
  Kd: 30 nM
Sin3 complex; protein SIN3B, read-out: Kd^app SIN3B
  Kd: 30 nM
[1]
  abundance of acetylated histone peptides (in words): pronounced abundance of hyperacetylated histone peptides
TBL1X
  IC50: 50 nM
TBL1XR1; K-562 cell lysate
  IC50: 70 nM
TBL1XR1; Molt-4 cell lysate
  IC50: 70 nM
GPS2
  IC50: 100 nM
DNTTIP1
  IC50: 50 nM
GATAD2A; K-562 cell lysate
  IC50: 60 nM
GATAD2A; Molt-4 cell lysate
  IC50: 40 nM
GATAD2B; K-562 cell lysate
  IC50: 60 nM
GATAD2B; Molt-4 cell lysate
  IC50: 60 nM
MBD3; K-562 cell lysate
  IC50: 50 nM
MBD3; Molt-4 cell lysate
  IC50: 40 nM
MTA2; K-562 cell lysate
  IC50: 70 nM
MTA2; Molt-4 cell lysate
  IC50: 60 nM
MTA3
  IC50: 60 nM
RBBP7; K-562 cell lysate
  IC50: 180 nM
RBBP7; Molt-4 cell lysate
  IC50: 120 nM
